Measured values as given in PMC9413440, “An Iterative Approach Guides Discovery of the FabI Inhibitor Fabimycin, a Late-Stage Antibiotic Candidate with In Vivo Efficacy against Drug-Resistant Gram-Negative Infections” (ACS Central Science, 2022).
≈ marks a conversion by molar mass, not a printed value. Like-named read-outs stand apart in the source and are kept apart here.

Legend:
[1] = test system: Bifidobacterium longum ATCC BAA999; test: MIC, commensal bacteria; type: cell-based; conditions: ATCCBAA999
Procedure: (§1) II. Materials and Methods for Biological Experiments
(§2) S. aureus ATCC 29213 and E. coli MG1655 were obtained from the American Type Culture Collection (ATCC). E. coli BW25113 and E. coli JW5503 were obtained from the Keio Collection. AR-bank strains were obtained from the Centers for Disease Control and Prevention and FDA Antibiotic Resistance Isolate Bank.
(§3) Antimicrobial susceptibility tests
(§4) Susceptibility testing was performed in biological triplicate, unless noted otherwise, using the micro-dilution broth method as outlined by the Clinical and Laboratory Standards Institute. Bacteria were cultured with cation-adjusted Mueller Hinton broth (Sigma Aldrich, catalogue number: 90922). […]
(§5) NH3: m/z 391.2 → 171.0. Fabimycin: m/z 405.3 → 145.3. Power analysis was not used to determine the number of replicates. Error bars represent the standard error of the mean of three biological replicates. All compounds evaluated in biological assays were ≥95% pure.

[2] = test system: Blautia producta ATCC 27340; test: MIC, commensal bacteria; type: cell-based; conditions: ATCC27340
Procedure: as §1, §2, §3, §4, §5

[3] = test system: Enterococcus faecalis KLE 2341; test: MIC, commensal bacteria; type: cell-based; conditions: KLE2341
Procedure: as §1, §2, §3, §4, §5

[4] = test system: Streptococcus parasanguinis KLE 2375; test: MIC, commensal bacteria; type: cell-based; conditions: KLE2375
Procedure: as §1, §2, §3, §4, §5

[5] = test system: Bacteroides fragilis ATCC 25285; test: MIC, commensal bacteria; type: cell-based; conditions: ATCC25285
Procedure: as §1, §2, §3, §4
(§6) Error bars represent the standard error of the mean of three biological replicates. All compounds evaluated in biological assays were ≥95% pure.

[6] = test system: Stenotrophomonas maltophilia ATCC 13637; test: MIC, commensal bacteria; type: cell-based; conditions: ATCC13637
Procedure: as §1, §2, §3, §4, §6

[7] = test system: Streptococcus salivarius KLE 2370; test: MIC, commensal bacteria; type: cell-based; conditions: KLE2370
Procedure: as §1, §2, §3, §4, §6

[8] = test system: panel of 10 clinical isolates (two E. coli, four K. pneumoniae, four A. baumannii); test: MIC, Gram-negative clinical isolate challenge panel; type: cell-based; conditions: Gram-negative clinical isolates; fabimycin relative to (R)-7
E. coli MG1655 = test: Selection of resistant mutants, mutant prevention concentration; type: cell-based, Escherichia coli; conditions: 32x MIC, 0 colonies
Procedure: (§7) Selection of resistant mutants
(§8) Resistant mutants were generated using the large inoculum method. Briefly, S. aureus 29213, E. coli MG1655, and A. baumannii 19606 (~1 x 1010 CFUs) was plated on 100-mm plates (E. coli and A. baumannii) or 150-mm plates (S. aureus) of MH agar containing either 128, 64, or 32 µg/mL fabimycin (for gram-negatives) or 0.125, 0.062, and 0.031 µg/mL fabimycin (for S. aureus). Plates were incubated at 37 °C for 48 h and counted for the presence of colony forming units.
(§9) Glycerol stocks of selected colonies were made, and resistant colonies confirmed by growing on agar plates containing the same concentration of fabimycin that they were generated at.
(§10) Sequencing of bacterial fabI
(§11) The FabI gene was amplified by PCR. Fabimycin-resistant colonies were picked and diluted in 100 µL sterile, nuclease-free H2O. […] A 10 µL portion of PCR reaction mixture was analyzed by agarose gel electrophoresis to confirm the single 1.4-kilobase pair product. […]
(§12) Candidate drugs were incubated with plasma and parent drug levels were monitored at various time points (generally t=0, 10, 20, 30, and 60 minutes) to determine the drug’s half-life in the presence of the chosen system. […] The supernatant was collected after centrifugation, and the sample analyzed by LC-MS where the percentage of compound remaining is plotted vs time to determine the drug’s half-life. […]

[9] = type: in vitro ADME
Procedure: Forward 5’-GGG-GCC-AGC-GTT-TCT-TTT-TC-3‘ Parker, 20203
Reverse 5’-AAA-CAT-GGA-GAC-GGT-GCT-GG
Forward 5’-GTG-AGA-TCG-GCA-TGA-CAC-AA-3’ Lin, 20179
Reverse 5’-CTG-AAG-TCC-GCT-ACC-GTT-AT-3’
Compound stability in mammalian plasma
Candidate drugs were incubated with plasma and parent drug levels were monitored at various time points (generally t=0, 10, 20, 30, and 60 minutes) to determine the drug’s half-life in the presence of the chosen system. Each drug is tested in duplicate. Compounds were diluted from 10 mM DMSO stocks to 1 µM in a 100 mM pH 7.4 phosphate buffer and incubated at 37 °C with 0.5 mg/mL of human, rat, or mouse plasma (BioreclamationIVT, Baltimore, MD). Time points were collected at 0 min (after addition of drug), 15 min, 30 min, 60 min, and 120 min following quenching with an equal volume of acetonitrile. The supernatant was collected after centrifugation, and the sample analyzed by LC-MS where the percentage of compound remaining is plotted vs time to determine the drug’s half-life.
Compound plasma protein binding
Candidate drugs were incubated with plasma and parent drug levels are monitored after 4 hours to determine the drug’s free concentration in the presence of the plasma proteins. The standard assay involves equilibrium dialysis, in which compound is allowed to equilibrate between a protein-containing compartment from a protein-free compartment. Each

[10] = type: in vitro ADME; remark: listed apart in the source
Procedure: as §7, §8, §9, §10, §11, §12

Cc1c(CN(C)C(=O)/C=C/c2cnc3c(c2)CC[C@H](N)C(=O)N3)oc2ccccc12 [fabimycin]
MIC [1]: > 128 µg/mL
MIC [2]: > 128 µg/mL
MIC [3]: > 128 µg/mL
MIC [4]: 128 µg/mL (≈ 316 µM)
MIC [5]: > 128 µg/mL
MIC [6]: 128 µg/mL (≈ 316 µM)
MIC [7]: > 128 µg/mL
difference in MIC activity between the two enantiomers [8]: 64–128 fold
mutant prevention concentration (MPC) (E. coli MG1655): 64 µg/mL
stability in plasma ([9]; human): excellent stability
stability in plasma ([9]; mouse): considerable instability
stability in plasma ([9]; rat): excellent stability
plasma protein binding [10]: lower plasma protein binding relative to Debio-1452
